17 compounds from patent EP0609437B1, “NOVEL SPHINGOGLYCOLIPID AND USE THEREOF” (KIRIN BEER KABUSHIKI KAISHA, priority 1991, dated 1993) can be followed below.

For test [1], the system named is B16 mouse melanoma cells. In words: Anti-tumor activity against B16 mouse melanoma inoculated subcutaneously. Format: in vivo. The conditions noted are these: Mus musculus, iv, 480 h; maximum tumor growth inhibition rate during the test period of 20 days; female BDF1 mice; 0.1 mg/kg intravenously on days 1, 5 and 9 after s.c. inoculation; read-out: TGIR (%). Here is the method:
Anti-tumor activity against B16 mouse melanoma inoculated subcutaneously.
Experiment was carried out with the groups of 6 female BDF1 mice (6 weeks old) purchased from Japan SLC Inc., B16 mouse melanoma cells (1 × 10^6 cells/mouse) were inoculated subcutaneously in the rear region of mice, and the sample prepared in a concentration of 0.1 mg/kg was administered intravenously at a dose of 0.2 ml/20g/mouse after 1, 5 and 9 days from inoculation (the day of inoculation being set as 0 day). The volume of the tumor at the hypodermis of the rear region [(longer diameter × shorter diameter × height)/2] was measured on 8, 12, 16 and 20 days after inoculation, and the tumor growth inhibition rate (TGIR) of each sample was determined. TGIR was calculated from the following equation: TGIR (%) = (1 - T/C) × 100 [formula] wherein C represents a tumor volume of the control group and T represents a tumor volume of the group to which the sample was administered.
In this connection, respective test runs were divided by broken lines.

Test [2] relates to spleen cells of C57BL/6 mouse and pancreatic cells of BALB/c mouse. In words: Lymphocyte mixed culture reaction (mouse MLR), uptake of 3H-TdR. It counts as cell-based. As to conditions: Mus musculus, Lymphocyte, 50 h, cultured for 42 hours, then 8 hours with 3H-TdR, read-out: Uptake of ^3H-TdR (% of control); for activity at 1 µg/mL: sample concentration 10^0 µg/ml; for activity at 0.1 µg/mL: sample concentration 10^-1 µg/ml; for activity at 0.01 µg/mL: sample concentration 10^-2 µg/ml. Here is the method: Experiment was carried out with the spleen cells of C57BL/6 mouse which had been treated with mitomycin C (50 µg/ml, 30 min) as the stimulator and with the […] cells of BALB/c mouse as the responder. These […] cells were suspended to a concentration of 2 × 10^6 cells/ml with a culture medium of 10% FCS RPMI 1640, respectively. These cells (50 µl/well) and a sample (10 µl/well) were plated in a 96 well round-bottomed plate and cultured for 42 hours* under the condition of 37°C and 5% CO2. ^3H-thymidine (^3H-TdR) was added in a dose of 0.5 µCi/well. After 8 hours, the cells were harvested and subjected to the measurement of the uptake of ^3H-TdR by a liquid scintillation counter.
*The samples of the compounds 32, 33 and 34 were cultured for 4 days.

Consider `CCCCCCCCCCCCCC(=O)N[C@H](CO[C@H]1O[C@H](CO)[C@H](O)[C@H](O)[C@H]1O)[C@@H](O)CCCCCCCCCCCCC` [Compound 11, (2R,3S)-1-(α-D-galactopyranosyloxy)-2-tetradecanoylamino-3-hexadecanol], for which, in test [1], the inhibition in vivo at 0.1 mg/kg was 55.9%. In addition, in test [2], the activity at 1 µg/mL was 128%, the activity at 0.1 µg/mL stood at 105% and the activity at 0.01 µg/mL amounted to 95%.

Consider `CCCCCCCCCCCCCC(=O)N[C@@H](CO[C@H]1O[C@H](CO)[C@H](O)[C@H](O)[C@H]1O)[C@@H](O)CCCCCCCCCCCCC` [Compound 12, (2S,3S)-1-(α-D-galactopyranosyloxy)-2-tetradecanoylamino-3-hexadecanol], for which the inhibition in vivo at 0.1 mg/kg in test [1] came to 41.8%. In test [2], the activity at 1 µg/mL stood at 123%, the activity at 0.1 µg/mL was 99% and the activity at 0.01 µg/mL is 104%.

With `CCCCCCCCCCCCCC(=O)N[C@H](CO[C@H]1O[C@H](CO)[C@H](O)[C@H](O)[C@H]1O)[C@H](O)CCCCCCCCCCCCC` [Compound 13, (2R,3R)-1-(α-D-galactopyranosyloxy)-2-tetradecanoylamino-3-hexadecanol], the inhibition in vivo at 0.1 mg/kg in test [1] was found to be 28.2%. Further, in test [2], the activity at 1 µg/mL is 139%, the activity at 0.1 µg/mL is 106% and the activity at 0.01 µg/mL was 107%.

As for `CCCCCCCCCCCCCCCCCCCCCC[C@@H](O)C(=O)N[C@@H](CO[C@H]1O[C@H](CO)[C@H](O)[C@H](O)[C@H]1O)[C@H](O)CCCCCCCCCCCCCCC` [Compound 14, (2S,3R)-1-(α-D-galactopyranosyloxy)-2-[(R)-2-hydroxytetracosanoylamino]-3-octadecanol], the inhibition in vivo at 0.1 mg/kg in test [1] was determined as 84%. In test [2], the activity at 1 µg/mL was 289%, the activity at 0.1 µg/mL came to 197% and the activity at 0.01 µg/mL was 139%.

In the case of `CCCCCCCCCCCCC/C=C/[C@@H](O)[C@H](CO[C@H]1O[C@H](CO)[C@H](O)[C@H](O)[C@H]1O)NC(=O)CCCCCCCCCCCCCCCCC` [Compound 15, (2S,3R,4E)-1-(α-D-galactopyranosyloxy)-2-octadecanoylamino-4-octadecen-3-ol], the inhibition in vivo at 0.1 mg/kg in test [1] came to 61.9%. Besides, in test [2], the activity at 1 µg/mL turned out to be 360%, the activity at 0.1 µg/mL was 165% and the activity at 0.01 µg/mL is 144%.

Take `CCCCCCCCCCCCCCCCCCCCCCCC(=O)N[C@@H](CO[C@H]1O[C@H](CO)[C@H](O)[C@H](O)[C@H]1O)[C@H](O)[C@H](O)CCCCCCCCCCCCCC` [Compound 16, (2S,3S,4R)-1-(α-D-galactopyranosyloxy)-2-tetracosanoylamino-3,4-octadecanediol]: the inhibition in vivo at 0.1 mg/kg in test [1] came out at 65%. For the same compound, in test [2], the activity at 1 µg/mL is 321%, the activity at 0.1 µg/mL came out at 176% and the activity at 0.01 µg/mL is 160%.

For the compound `CCCCCCCCCCCCCCCCCCCCCCCC(=O)N[C@@H](CO[C@H]1O[C@H](CO)[C@H](O)[C@H](O)[C@H]1O)[C@H](O)[C@H](O)CCCCCCCCCCCCC` [Compound 17, (2S,3S,4R)-1-(α-D-galactopyranosyloxy)-2-tetracosanoylamino-3,4-heptadecanediol], in test [1], the inhibition in vivo at 0.1 mg/kg was found to be 58%. Further, in test [2], the activity at 1 µg/mL came to 410%, the activity at 0.1 µg/mL came out at 190% and the activity at 0.01 µg/mL stood at 143%.

As for `CCCCCCCCCCCCCCCCCCCCCCCC(=O)N[C@@H](CO[C@H]1O[C@H](CO)[C@H](O)[C@H](O)[C@H]1O)[C@H](O)[C@H](O)CCCCCCCCCCC` [Compound 18, (2S,3S,4R)-1-(α-D-galactopyranosyloxy)-2-tetracosanoylamino-3,4-pentadecanediol], the inhibition in vivo at 0.1 mg/kg in test [1] stood at 66.3%. In addition, in test [2], the activity at 1 µg/mL is 482%, the activity at 0.1 µg/mL amounted to 176% and the activity at 0.01 µg/mL worked out at 138%.

Regarding `CCCCCCCCCCCCCCCCCCCCCCCC(=O)N[C@@H](CO[C@H]1O[C@H](CO)[C@H](O)[C@H](O)[C@H]1O)[C@H](O)[C@H](O)CCCCCCC` [Compound 19, (2S,3S,4R)-1-(α-D-galactopyranosyloxy)-2-tetracosanoylamino-3,4-undecanediol], in test [1], the inhibition in vivo at 0.1 mg/kg came out at 80.2%. Also, in test [2], the activity at 1 µg/mL turned out to be 345%, the activity at 0.1 µg/mL is 188% and the activity at 0.01 µg/mL came out at 144%.

With `CCCCCCCCCCCCCCCCCCCCCCCCCC(=O)N[C@@H](CO[C@H]1O[C@H](CO)[C@H](O)[C@H](O)[C@H]1O)[C@H](O)[C@H](O)CCCCCCCCCCCCC` [Compound 20, (2S,3S,4R)-1-(α-D-galactopyranosyloxy)-2-hexacosanoylamino-3,4-heptadecanediol], the inhibition in vivo at 0.1 mg/kg in test [1] was 73.7%. In test [2], the activity at 1 µg/mL is 443%, the activity at 0.1 µg/mL stood at 188% and the activity at 0.01 µg/mL was 192%.

For the compound `CCCCCCCCCCCCCCCCCCCCCC[C@@H](O)C(=O)N[C@@H](CO[C@H]1O[C@H](CO)[C@H](O)[C@H](O)[C@H]1O)[C@H](O)[C@H](O)CCCCCCCCCCCCCC` [Compound 21, (2S,3S,4R)-1-(α-D-galactopyranosyloxy)-2-[(R)-2-hydroxytetracosanoylamino]-3,4-octadecanediol], the inhibition in vivo at 0.1 mg/kg in test [1] came out at 57.9%. Besides, in test [2], the activity at 1 µg/mL turned out to be 304%, the activity at 0.1 µg/mL turned out to be 149% and the activity at 0.01 µg/mL was 142%.

Consider `CCCCCCCCCCCCCCCCCCCCCC[C@@H](O)C(=O)N[C@@H](CO[C@H]1O[C@H](CO)[C@H](O)[C@H](O)[C@H]1O)[C@H](O)[C@H](O)CCCCCCCCCCC` [Compound 23, (2S,3S,4R)-1-(α-D-galactopyranosyloxy)-2-[(R)-2-hydroxytetracosanoylamino]-3,4-pentadecanediol], for which, in test [1], the inhibition in vivo at 0.1 mg/kg was 94.1%. In test [2], the activity at 1 µg/mL came to 423%, the activity at 0.1 µg/mL stood at 167% and the activity at 0.01 µg/mL is 143%.

With `CCCCCCCCCCCCCCCCCCCCCC[C@@H](O)C(=O)N[C@@H](CO[C@H]1O[C@H](CO)[C@H](O)[C@H](O)[C@H]1O)[C@H](O)[C@H](O)CCCCCCC` [Compound 24, (2S,3S,4R)-1-(α-D-galactopyranosyloxy)-2-[(R)-2-hydroxytetracosanoylamino]-3,4-undecanediol], the inhibition in vivo at 0.1 mg/kg in test [1] was 52.5%. In test [2], the activity at 1 µg/mL came to 416%, the activity at 0.1 µg/mL came to 167% and the activity at 0.01 µg/mL was determined as 144%.

For `CCCCCCCCCCCCCCCCCCCCCCCC[C@@H](O)C(=O)N[C@@H](CO[C@H]1O[C@H](CO)[C@H](O)[C@H](O)[C@H]1O)[C@H](O)[C@H](O)CCCCCCCCCCCCCC` [Compound 25, (2S,3S,4R)-1-(α-D-galactopyranosyloxy)-2-[(R)-2-hydroxyhexacosanoylamino]-3,4-octadecanediol], in test [1], the inhibition in vivo at 0.1 mg/kg came to 92.8%. In test [2], the activity at 1 µg/mL was determined as 230%, the activity at 0.1 µg/mL was found to be 179% and the activity at 0.01 µg/mL is 161%.

Consider `CCCCCCCCCCCCCCCCCCCCCCCC[C@@H](O)C(=O)N[C@@H](CO[C@H]1O[C@H](CO)[C@H](O)[C@H](O)[C@H]1O)[C@H](O)[C@H](O)CCCCCCCCCCCCCCC` [Compound 26, (2S,3S,4R)-1-(α-D-galactopyranosyloxy)-2-[(R)-2-hydroxyhexacosanoylamino]-3,4-nonadecanediol], for which the inhibition in vivo at 0.1 mg/kg in test [1] came out at 72.3%. Also, in test [2], the activity at 1 µg/mL is 253%, the activity at 0.1 µg/mL was determined as 199% and the activity at 0.01 µg/mL was determined as 193%.

With `CCCCCCCCCCCCCCCCCCCCCCCC[C@@H](O)C(=O)N[C@@H](CO[C@H]1O[C@H](CO)[C@H](O)[C@H](O)[C@H]1O)[C@H](O)[C@H](O)CCCCCCCCCCCCCCCC` [Compound 27, (2S,3S,4R)-1-(α-D-galactopyranosyloxy)-2-[(R)-2-hydroxyhexacosanoylamino]-3,4-icosanediol], the inhibition in vivo at 0.1 mg/kg in test [1] was 92.8%. For the same compound, in test [2], the activity at 1 µg/mL is 257%, the activity at 0.1 µg/mL was 181% and the activity at 0.01 µg/mL stood at 162%.

As to `CCCCCCCCCCCCCCCCCCCCCC[C@H](O)C(=O)N[C@@H](CO[C@H]1O[C@H](CO)[C@H](O)[C@H](O)[C@H]1O)[C@H](O)[C@H](O)CCCCCCCCCCCCC` [Compound 28, (2S,3S,4R)-1-(α-D-galactopyranosyloxy)-2-[(S)-2-hydroxytetracosanoylamino]-3,4-heptadecanediol], the inhibition in vivo at 0.1 mg/kg in test [1] worked out at 76.2%. In test [2], the activity at 1 µg/mL amounted to 357%, the activity at 0.1 µg/mL was 172% and the activity at 0.01 µg/mL is 141%.
